For one experiment, the target named is JAK1 (Homo sapiens (Human), UniProt P23458). Briefly: Jak Biochemical HTRF Assay, JAK1. To be noted: HTRF biochemical assay, GST-tagged catalytic domain; top concentration tested […]; read-out: JAK1 IC50. From the text:
(§1) Jak Biochemical HTRF Assay Protocol
(§2) Subsequent reagent additions employed an Agilent Bravo.
For orientation: In TR-FRET formats the signal depends on donor and acceptor labels being close together.

The target in another experiment is JAK2 (Homo sapiens (Human), UniProt O60674). Briefly: Jak Biochemical HTRF Assay, JAK2. To be noted: HTRF biochemical assay, GST-tagged catalytic domain; top concentration tested […].
Description: as §1, §2

SMILES strings stand for the structures.

Sequence of JAK2 (O60674 849-1124): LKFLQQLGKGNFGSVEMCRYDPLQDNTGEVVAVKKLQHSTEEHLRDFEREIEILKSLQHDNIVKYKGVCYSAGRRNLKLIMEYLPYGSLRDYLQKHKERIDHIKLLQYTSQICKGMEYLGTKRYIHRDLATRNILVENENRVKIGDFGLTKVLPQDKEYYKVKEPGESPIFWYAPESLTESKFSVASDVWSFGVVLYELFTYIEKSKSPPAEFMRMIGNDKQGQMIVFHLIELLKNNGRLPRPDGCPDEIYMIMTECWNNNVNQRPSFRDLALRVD
Sequence of JAK1 (P23458 875-1153): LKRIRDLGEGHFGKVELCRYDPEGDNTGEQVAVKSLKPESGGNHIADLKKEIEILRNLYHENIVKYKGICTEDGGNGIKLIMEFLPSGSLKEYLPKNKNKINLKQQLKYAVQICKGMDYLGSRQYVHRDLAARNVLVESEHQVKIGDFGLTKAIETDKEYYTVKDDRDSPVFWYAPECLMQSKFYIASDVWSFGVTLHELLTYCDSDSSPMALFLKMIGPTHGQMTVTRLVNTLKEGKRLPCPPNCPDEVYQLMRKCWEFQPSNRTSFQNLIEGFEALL

By IC50 is commonly meant the concentration at which inhibition is half-maximal. Consider `N#CCC1(n2cc(C(N)=O)c(Nc3ccnc(F)c3)n2)CCN(Cc2cccc(Cl)c2)CC1` [Example 22-61, 1-[1-(3-chlorobenzyl)-4-(cyanomethyl)piperidin-4-yl]-3-[(2-fluoropyridin-4-yl)amino]-1H-pyrazole-4-carboxamide], for which the IC50 was determined as 0.4 nM at JAK1 and 10 nM at JAK2.
As for `N#CCC1(n2cc(C(N)=O)c(Nc3ccnc(F)c3)n2)CCN(Cc2cn3ccccc3n2)CC1` [Example 22-12, 1-[4-(cyanomethyl)-1-(imidazo[1,2-a]pyridin-2-ylmethyl)piperidin-4-yl]-3-[(2-fluoropyridin-4-yl)amino]-1H-pyrazole-4-carboxamide], the IC50 on JAK1 is 124 nM; at JAK2, more than 1500 nM.
The corresponding values for `N#CCC1(n2cc(C(N)=O)c(Nc3ccccc3)n2)CCN(C(=O)c2ccccc2Cl)CC1` [Example 34-20, 1-{1-[(2-chlorophenyl)carbonyl]-4-(cyanomethyl)piperidin-4-yl}-3-(phenylamino)-1H-pyrazole-4-carboxamide] are 13 nM and 115 nM.
Consider `CC(C)(C)OC(=O)N1CCC(CC#N)(n2cc(C(N)=O)c(Nc3ccnc(F)c3)n2)CC1` [Example 9-1, tert-Butyl 4-{4-carbamoyl-3-[(2-fluoropyridin-4-yl)amino]-1H-pyrazol-1-yl}-4-(cyanomethyl)piperidine-1-carboxylate], for which the results for the concentration for half-maximal inhibition (IC50) at JAK1 and against JAK2 were 0.2 nM and 5 nM, respectively.
The corresponding values for `CC(C)(C)OC(=O)N1CCC(CC#N)(n2cc(C(N)=O)c(Nc3ccc(C#N)nc3)n2)CC1` [Example 9-12, tert-butyl 4-{4-carbamoyl-3-[(6-cyanopyridin-3-yl)amino]-1H-pyrazol-1-yl}-4-(cyanomethyl)piperidine-1-carboxylate] are 0.5 nM and 6 nM.
Take `N#CCC1(n2cc(C(N)=O)c(Nc3ccc(F)cc3)n2)CCC(N2CCc3ccccc32)CC1` (stereo not drawn) [Example 40-49, Cis or trans 1-[1-(cyanomethyl)-4-(2,3-dihydro-1H-indol-1-yl)cyclohexyl]-3-[(4-fluorophenyl)amino]-1H-pyrazole-4-carboxamide]: the 50% inhibitory concentration (IC50) was found to be 5 nM at JAK1 and 137 nM against JAK2.
The corresponding values for `Cc1ccc(N2CCC(CC#N)(n3cc(C(N)=O)c(Nc4ccc(F)cc4)n3)CC2)cn1` [Example 3-52, 1-[4-(cyanomethyl)-1-(6-methylpyridin-3-yl)piperidin-4-yl]-3-[(4-fluorophenyl)amino]-1H-pyrazole-4-carboxamide] are 0.4 nM and 8 nM.
`C[C@@H](OC(=O)N1CCC(CC#N)(n2cc(C(N)=O)c(Nc3ccnc(F)c3)n2)CC1)C1CC1` [Example 30-78, (1R)-1-cyclopropylethyl 4-{4-carbamoyl-3-[(2-fluoropyridin-4-yl)amino]-1H-pyrazol-1-yl}-4-(cyanomethyl)piperidine-1-carboxylate]: the half-maximal inhibitory concentration (IC50) on JAK1 came to 0.3 nM; at JAK2, 12 nM.
The corresponding values for `N#CCC1(n2cc(C(N)=O)c(Nc3ccccc3)n2)CCN(C(=O)CO)CC1` [Example 34-35, 1-[4-(cyanomethyl)-1-(hydroxyacetyl)piperidin-4-yl]-3-(phenylamino)-1H-pyrazole-4-carboxamide] are 44 nM and 248 nM.
On the same counts, the results for `N#CCC1(n2cc(C(N)=O)c(Nc3ccnc(F)c3)n2)CCN(Cc2ccc3[nH]ccc3c2)CC1` [Example 22-20, 1-[4-(cyanomethyl)-1-(1H-indol-5-ylmethyl)piperidin-4-yl]-3-[(2-fluoropyridin-4-yl)amino]-1H-pyrazole-4-carboxamide] are 2 nM and 31 nM.
As for `Cc1cccc(NC(=O)N2CC(CC#N)(n3cc(C(N)=O)c(Nc4ccccc4)n3)C2)c1` [Example 38-11, 1-{3-(cyanomethyl)-1-[(3-methylphenyl)carbamoyl]azetidin-3-yl}-3-(phenylamino)-1H-pyrazole-4-carboxamide], the results for the half-maximal inhibitory concentration (IC50) on JAK1 and against JAK2 were 4 nM and 78 nM, respectively.
In the case of `N#CCC1(n2cc(C(N)=O)c(Nc3ccc(S(=O)(=O)C(F)F)cc3)n2)CCC(NCC(F)(F)F)CC1` (stereo not drawn) [Example 40-89, Cis or trans 1-{1-(cyanomethyl)-4-[(2,2,2-trifluoroethyl)amino]cyclohexyl}-3-({4-[(difluoromethyl)sulfonyl]phenyl}amino)-1H-pyrazole-4-carboxamide], the IC50 stood at 13 nM at JAK1 and 466 nM against JAK2.
On the same counts, the results for `N#CCC1(n2cc(C(N)=O)c(Nc3ccnc(F)c3)n2)CCC(Nc2cccc(Cl)c2)CC1` (stereo not drawn) [Example 40-29, Cis or trans 1-{4-[(3-chlorophenyl)amino]-1-(cyanomethyl)cyclohexyl}-3-[(2-fluoropyridin-4-yl)amino]-1H-pyrazole-4-carboxamide] are 0.07 nM and 4 nM.
The corresponding values for `N#CCC1(n2cc(C(N)=O)c(Nc3ccnc(F)c3)n2)CCC(Nc2cccc(F)c2)CC1` (stereo not drawn) [Example 40-55, Cis or trans 1-{1-(cyanomethyl)-4-[(3-fluorophenyl)amino]cyclohexyl}-3-[(2-fluoropyridin-4-yl)amino]-1H-pyrazole-4-carboxamide] are 13 nM and 409 nM.
The corresponding values for `N#CCC1(n2cc(C(N)=O)c(Nc3ccc(F)cc3)n2)CCN(Cc2cc3ccccc3[nH]2)CC1` [Example 22-43, 1-[4-(cyanomethyl)-1-(1H-indol-2-ylmethyl)piperidin-4-yl]-3-[(4-fluorophenyl)amino]-1H-pyrazole-4-carboxamide] are 1 nM and 64 nM.
On to `CC(C)(C)CC(=O)N1CCC(CC#N)(n2cc(C(N)=O)c(Nc3ccnc(F)c3)n2)CC1` [Example 34-54, 1-[4-(cyanomethyl)-1-(3,3-dimethylbutanoyl)piperidin-4-yl]-3-[(2-fluoropyridin-4-yl)amino]-1H-pyrazole-4-carboxamide], for which the 50% inhibitory concentration (IC50) at JAK1 turned out to be 0.6 nM; against JAK2, 44 nM.
On the same counts, the results for `COC(C)COC(=O)N1CCC(CC#N)(n2cc(C(N)=O)c(Nc3ccc(F)cc3)n2)CC1` (stereo not drawn) [Example 30-24, 2-methoxypropyl 4-{4-carbamoyl-3-[(4-fluorophenyl)amino]-1H-pyrazol-1-yl}-4-(cyanomethyl)piperidine-1-carboxylate] are 4 nM and 96 nM.
On the same counts, the results for `Cc1cc(Nc2nn(C3(CC#N)CCN(C(=O)OC(C)(C)C)CC3)cc2C(N)=O)ncn1` [Example 13-11, tert-butyl 4-(4-carbamoyl-3-(6-methylpyrimidin-4-ylamino)-1H-pyrazol-1-yl)-4-(cyanomethyl)piperidine-1-carboxylate] are 5 nM and 126 nM.
The corresponding values for `CC(C)(C)OC(=O)N1CCC(CC#N)(n2cc(C(N)=O)c(Nc3cccc(-c4ccccc4F)c3)n2)CC1` [Example 15-10, tert-butyl 4-{4-carbamoyl-3-[(2′-fluorobiphenyl-3-yl)amino]-1H-pyrazol-1-yl}-4-(cyanomethyl)piperidine-1-carboxylate] are 31 nM and 841 nM.
As to `N#CCC1(n2cc(C(N)=O)c(Nc3ccc(F)cc3)n2)CCN(C(=O)OCC(F)(F)CO)CC1` [Example 30-11, 2,2-difluoro-3-hydroxypropyl 4-(4-carbamoyl-3-(4-fluorophenylamino)-1H-pyrazol-1-yl)-4-(cyanomethyl)piperidine-1-carboxylate], the values for the IC50 on JAK1 and on JAK2 were 0.2 nM and 11 nM, respectively.
On to `CC(c1ccccc1)N1CCC(CC#N)(n2cc(C(N)=O)c(Nc3ccc(F)cc3)n2)CC1` (stereo not drawn) [Example 23, 1-(4-(Cyanomethyl)-1-(1-phenylethyl)piperidin-4-yl)-3-((4-fluorophenyl)amino)-1H-pyrazole-4-carboxamide], for which the 50% inhibitory concentration (IC50) worked out at 4 nM on JAK1 and 105 nM against JAK2.
`N#CCC1(n2cc(C(N)=O)c(Nc3ccccc3)n2)CN(C(=O)Nc2ccc(F)c(F)c2)C1` [Example 38-21, 1-{3-(cyanomethyl)-1-[(3,4-difluorophenyl)carbamoyl]azetidin-3-yl}-3-(phenylamino)-1H-pyrazole-4-carboxamide]: the IC50 came to 7 nM at JAK1 and 173 nM against JAK2.
The corresponding values for `Cc1cnc(F)c(CN2CCC(CC#N)(n3cc(C(N)=O)c(Nc4ccc(F)cc4)n3)CC2)c1` [Example 22-44, 1-{4-(cyanomethyl)-1-[(2-fluoro-5-methylpyridin-3-yl)methyl]piperidin-4-yl}-3-[(4-fluorophenyl)amino]-1H-pyrazole-4-carboxamide] are 5 nM and 22 nM.
The corresponding values for `CN1CCN(c2ccc(C(=O)N3CCC(CC#N)(n4cc(C(N)=O)c(Nc5ccccc5)n4)CC3)cc2)CC1` [Example 34-34, 1-[4-(cyanomethyl)-1-{[4-(4-methylpiperazin-1-yl)phenyl]carbonyl}piperidin-4-yl] 3-(phenylamino)-1H-pyrazole-4-carboxamide] are 60 nM and 830 nM.
On the same counts, the results for `CC(C)(C)OC(=O)N1CCC(CC#N)(n2cc(C(N)=O)c(Nc3ccc(S(C)(=O)=O)cc3)n2)CC1` [Example 4-1, tert-Butyl 4-(4-carbamoyl-3-{[4-(methylsulfonyl)phenyl]amino}-1H-pyrazol-1-yl)-4-(cyanomethyl)piperidine-1-carboxylate] are 0.1 nM and 1 nM.
Regarding `N#CCC1(n2cc(C(N)=O)c(Nc3ccc(S(=O)(=O)C(F)F)cc3)n2)CCC(N2CCC(O)CC2)CC1` (stereo not drawn) [Example 40-67, Cis or trans 1-[1-(cyanomethyl)-4-(4-hydroxypiperidin-1-yl)cyclohexyl]-3-({4-[(difluoromethyl)sulfonyl]phenyl}amino)-1H-pyrazole-4-carboxamide], the 50% inhibitory concentration (IC50) at JAK1 worked out at 37 nM; against JAK2 it was 773 nM.
The corresponding values for `CS(=O)(=O)c1ccc(Nc2nn([C@]3(CC#N)C[C@@H](C#N)C3)cc2C(N)=O)cc1` [Example 2-22, 1-((1r,3r)-3-cyano-1-(cyanomethyl)cyclobutyl)-3-((4-(methylsulfonyl)phenyl)amino)-1H-pyrazole-4-carboxamide] are 13 nM and 127 nM.
